In US7906486B2, “Method of treating or preventing tissue deterioration, injury or damage due to disease of mucosa” (SciClone Pharmaceuticals, Inc., priority 2007, dated 2011):
Several values for one entry are separate records, joined by “and”; a condition that tells them apart may be missing. Equal entries are not always repeated.

Tests used:
[1] = test system: immunization with sheep red blood cells; details: in vivo; cited from earlier work
[2] = Weights and survival (Example 3, SCI-03); assay type: in vivo, Syrian Golden Hamsters
Procedure: All animals were weighed daily and their survival recorded, in order to assess possible differences in animal weight among treatment groups as an indication for mucositis severity and/or possible toxicity resulting from the treatments.
There were no significant differences in weight changes between study groups. The mean daily percent weight change data was evaluated. The saline treated control hamsters gained an average of 76.3% of their starting weight during the study. Hamsters in the group receiving SCV-07 at 100 μg/kg on days −1 to 29 gained an average of 80.7% of their starting weight during the study. Hamsters in the group receiving SCV-07 at 100 μg/kg on days of radiation only gained an average of 66.3% of their starting weight during the study. Hamsters in the group receiving SCV-07 at 100 μg/kg on day −1, day 4, day 5 and days 10-29 gained an average of 69.7% of their starting weight during the study. The significance of these differences was evaluated by calculating the area-under-the-curve (AUC) for the weight gain of each animal, and then comparing the different treatment groups using a One-Way ANOVA test.

[3] = test system: oral mucositis induced by acute radiation (40 Gy, left buccal cheek pouch); experiment: Oral mucositis induced by acute radiation in hamsters, mucositis scoring (Example 1, SCI-01); assay type: in vivo, Syrian Golden Hamsters; set-up: key to peak mean mucositis score: 0 = normal, 5 = severe ulceration; details: for Days <3: animal days with mucositis score below three; for % Days >=3 / Days >=3: animal days with mucositis score of three or more; for Chi Sq v control: days with score >=3
Text: The acute radiation model in hamsters has proven to be an accurate, efficient and cost-effective technique to provide a preliminary evaluation of anti-mucositis compounds. The course of mucositis in this model is well defined and results in peak scores approximately 14-16 Days following radiation. The acute model has little systemic toxicity, resulting in few hamster deaths, thus permitting the use of smaller groups (N=7-8) for initial efficacy studies. It has also been used to study specific mechanistic elements in the pathogenesis of mucositis. Molecules that show efficacy in the acute radiation model may be further evaluated in the more complex models of fractionated radiation, chemotherapy, or concomitant therapy.
In this study, an acute radiation dose of 40 Gy on day 0 was administered. Clinically significant mucositis was observed on days 12 through 28.
Thirty-two (32) Syrian Golden Hamsters were given an acute radiation dose of 40 Gy directed to their left buccal cheek pouch on day 0. Test materials were given by sub-cutaneous injection once daily. Dosing began one day before radiation (day −1) and continued until day 16. Mucositis was evaluated clinically starting on day 6, and continuing on alternate days until day 28.
The grade of mucositis was scored, beginning day 6, and for every second day thereafter, through and including day 28. The effect on mucositis of each drug treatment compared to placebo was assessed according to the following parameters:
The difference in the number of days hamsters in each group have ulcerative (score ≧3) mucositis.
On each evaluation day, the number of animals with a blinded mucositis score of 3 in each drug treatment group was compared to the control group. Differences were compared on a cumulative basis and statistical significance was determined by chi-square analysis. Efficacy, in this analysis, is defined by a significant reduction in the number of days that a group of animals had ulcerations (scores 3) when compared to the control group.
For each evaluation day the scores of the control group were compared to those of the treated groups using non-parametric rank sum analysis. Treatment success was considered as a statistically significant lowering of scores in the treated group on 2 or more days from day 6 to day 28.
Thirty-two Syrian Golden Hamsters were divided into four (4) groups of eight (8) animals each. All animals received a single dose of acute radiation of 40 Gy directed to their left buccal cheek pouch on day 0. This was accomplished by anesthetizing the animals and everting the left buccal pouch, while protecting the rest of the animals with a lead shield. Test materials were given by sub-cutaneous injection once daily as detailed in Table 1. Mucositis was evaluated clinically starting on Day 6, and continuing on alternate days until day 28.
Mucositis was induced using a standardized acute radiation protocol. A single dose of radiation (40 Gy/dose) was administered to all animals on day 0. Radiation was generated with a 160 kilovolt potential (15-ma) source at a focal distance of 30 cm, hardened with a 0.35 mm Cu filtration system. Irradiation targeted the left buccal pouch mucosa at a rate of 3.2 Gy/minute. Prior to irradiation, animals were anesthetized with an intraperitoneal injection of Ketamine (160 mg/kg) and Xylazine (8 mg/kg). The left buccal pouch was everted, fixed and isolated using a lead shield to protect all other parts of the hamster's body.
The mucositis score, weight change and survival were measured throughout the study as described above. For the evaluation of mucositis, the animals were anesthetized with an inhalation anesthetic, and the left pouch everted. Mucositis was scored visually by comparison to a validated photographic scale, ranging from 0 for normal, to 5 for severe ulceration (clinical scoring). In descriptive terms, this scale is defined as follows: […]

thymocyte and lymphocyte = details: in vitro; cited from earlier work
bone marrow cells = details: cited from earlier work
[4] = test system: 5-FU-immune-suppressed animals; details: in vivo; cited from earlier work
[5] = individual animals, Group 4 (SCV-07 100 μg/kg on days −1, 4, 5 and 10-29), second part of table

## N[C@H](CCC(=O)N[C@@H](Cc1c[nH]c2ccccc12)C(=O)O)C(=O)O [SCV-07, γ-D-glutamyl-L-tryptophan]
[1]
  immunostimulatory effect in a model of immunization with sheep red blood cells: strong immunostimulatory effect
[2]; 100 ug/kg on day -1, day 4, day 5 and days 10-29
  average weight gain, % of starting weight during the study: 69.7%
[2]; 100 ug/kg on days -1 to 29
  average weight gain, % of starting weight during the study: 80.7%
[2]; 100 ug/kg on days of radiation only
  average weight gain, % of starting weight during the study: 66.3%
[2]; [5]
  Animal weight, Day 18: 113 and 121 and 88 and 98
  Animal weight, Day 19: 118 and 127 and 92 and 102
  Animal weight, Day 20: 118 and 128 and 92 and 104
  Animal weight, Day 21: 119 and 131 and 94 and 109
  Animal weight, Day 22: 120 and 133 and 95 and 109
  Animal weight, Day 23: 120 and 135 and 97 and 111
  Animal weight, Day 24: 123 and 135 and 99 and 112
  Animal weight, Day 25: 122 and 137 and 98 and 113
  Animal weight, Day 26: 123 and 139 and 100 and 118
  Animal weight, Day 27: 127 and 140 and 102 and 121
  Animal weight, Day 28: 128 and 142 and 103 and 122
  Animal weight, Day 29: 128 and 142 and 102 and 118
  Animal weight, Day 30: 132 and 146 and 105 and 126
  Animal weight, Day 31: 134 and 150 and 108 and 126
  Animal weight, Day 32: 134 and 149 and 109 and 129
  Animal weight, Day 33: 137 and 154 and 112 and 132
  Animal weight, Day 35: 140 and 154 and 113 and 134
[2]; individual animals, Group 4 (SCV-07 100 μg/kg on days −1, 4, 5 and 10-29), second part of table, c18, day inferred as 34
  Animal weight, Day 34: 139 and 153 and 112 and 133
[3]; 1 ug/kg from day -1 to 16
  day of peak mean mucositis score: 16
  peak mean mucositis score: 3.8
[3]; 1 ug/kg on days -1 to 16, any day of the study
  improvement in daily mucositis scores relative to saline controls (Mann-Whitney rank sum): did not show any statistically significant improvement on any day
[3]; 10 ug/kg from day -1 to 16
  day of peak mean mucositis score: 16
  peak mean mucositis score: 3.7
[3]; 100 ug/kg from day -1 to 16
  day of peak mean mucositis score: 18
  peak mean mucositis score: 3.4
[3]; 1 ug/kg sc Days -1 to 16
  Days <3: 102
  % Days >=3: 46.9%
  Days >=3: 90
  Chi Sq v control: 0.0105
[3]; 10 ug/kg sc Days -1 to 16
  Days <3: 120
  % Days >=3: 37.5%
  Days >=3: 72
  Chi Sq v control: 3.0860
[3]; 100 ug/kg sc Days -1 to 16
  Days <3: 124
  % Days >=3: 35.4%
  Days >=3: 68
  Chi Sq v control: 4.7420
Thymocyte and lymphocyte
  Con-A-induced thymocyte and lymphocyte proliferation: increases
Bone marrow cells
  expression of Thy-1.2 on bone marrow cells: stimulates
[4]
  immunostimulatory effect on 5-FU-immune-suppressed animals: strong immunostimulatory effect
